Experimental data from patent US4316884A, “Sustained release pharmaceutical formulation” (Adria Laboratories, Inc., priority 1980, dated 1982).
“Also recorded” adds a separate entry of the source.

Columns and labels:
[1] = plasma levels of indoprofen in mice after oral gavage (HPLC-UV); assay type: in vivo
Protocol: Plasma levels of indoprofen are determined in adult mice (22-25 g.) following oral gavage of either pure drug or microencapsulated drug. Drugs are administered at 1% of the body weight. Each treatment group in a single experiment contains four animals and the data is pooled for evaluation. Animals are sacrificed by decapitation. Blood from each treatment group is collected and pooled in heparinized tubes. Plasma is collected and frozen for assay of indoprofen concentration. Plasma indoprofen concentration is determined by high pressure liquid chromatography fitted with a UV detector; concentration is determined at max. 284 nm.
Plasma Level (μg/ml) of Indoprofen in Mice,
Administered Orally as a Suspension*
*Aqueous suspension containing 0.5% methylcellulose and 0.06% surface
^a The apparent rate of elimination, Ke is calculated using a on
compartment open model system as described by J. G. Wagner
Biopharmaceutics and Relevant Pharmacokinetics, page 180, Hamilton Press

[2] = clinical analgesic/anti-inflammatory efficacy and side effects in man; assay type: in vivo
Protocol: The analgesic dose for indoprofen in man is low in comparison to the anti-inflammatory dose, i.e., in the order of 100 to 600 mg. per day.
However, the dose necessary for indoprofen to exert an anti-inflammatory activity is higher than the analgesic dose, i.e., in the order of 800 to 1200 mg. per day. […] At this dose gastrointestinal ulceration and other side effects are […].

[3] = human, in vivo
[4] = humans; cited from earlier work
[5] = acidic pH of the stomach, unionized; cited from earlier work
[6] = in vivo; cited from earlier work

half-life ([1]; mouse, plasma, oral suspension): 324 min
concentration at 2 h ([1]; mouse, plasma, oral suspension, 2 hours, mean and standard error, read-out: Plasma Level of Indoprofen): 2490 ± 450 ng/mL
concentration at 4 h ([1]; mouse, plasma, oral suspension, 4 hours, mean and standard error, read-out: Plasma Level of Indoprofen): 1620 ± 150 ng/mL
concentration at 8 h ([1]; mouse, plasma, oral suspension, 8 hours, mean and standard error, read-out: Plasma Level of Indoprofen): 890 ± 240 ng/mL
concentration at 16 h ([1]; mouse, plasma, oral suspension, 16 hours, mean and standard error, read-out: Plasma Level of Indoprofen): 490 ± 170 ng/mL
concentration at 32 h ([1]; mouse, plasma, oral suspension, 32 hours, mean and standard error, read-out: Plasma Level of Indoprofen): 430 ng/mL
k el ([1]; mouse, plasma, oral suspension, one compartment open model, read-out: Ke, apparent rate of elimination (converted)): 3.54e-05 s⁻¹
plasma peak height and bioavailability (total area under the plasma curve) as dose is increased [3]: increases in a linear fashion
SMILES: CC(C(=O)O)c1ccc(N2Cc3ccccc3C2=O)cc1 (stereo not drawn) [indoprofen, alpha-[4-(1-oxo-2-isoindolinyl)-phenyl]propionic acid]
AUC ([1]; mouse, plasma, oral, 1% of the body weight, read-out: area under the plasma curve): 24500 ng·h/mL
Cmax ([1]; mouse, plasma, oral, 1% of the body weight, read-out: plasma peak height): 2500 ng/mL
bioavailability, pure drug versus microencapsulated form ([1]; oral): bioequivalent; also recorded: equivalent bioavailability
plasma peak height, pure drug relative to microencapsulated drug ([1]; oral, listed as pure drug): two times that of microencapsulated form; also recorded: two times that of the microencapsulated drug
safety in prolonged therapy ([2]; clinical studies, above 800 mg., especially 1200 mg., per day): has not been shown to be safe for prolonged therapy
safety classification ([2]; clinical studies, up to 800 mg. per day): safe dose
effectiveness in osteoarthritis ([2]; man, 800 mg. per day): effective in the treatment of osteoarthritis
gastrointestinal ulceration and other side effects ([2]; man, 800 mg. per day): minimal
effectiveness in rheumatoid arthritis ([2]; man, 1200 mg. per day): effective in the treatment of rheumatoid arthritis
gastrointestinal ulceration and other side effects ([2]; man, 1200 mg. per day): the incidence of gastrointestinal ulceration and other side effects are recognized
analgesic effect ([2]; man, 100 to 600 mg. per day): maximum analgesic effect
side effects ([2]; man, 100 to 600 mg. per day): minimal or negligible side effects
plasma half-life (t 1/2) [4]: 2.1 to 5.4 h
solubility [5]: poorly soluble
anti-inflammatory and analgesic properties [6]: excellent anti-inflammatory and analgesic properties
